Experimental data from patent US5858702A, “Isolation, cloning and expression of transmembrane water channel Aquaporin 5 (AQP5)” (The Johns Hopkins University, priority 1995, dated 1999).

Experiment: Stopped-flow water flux (Pf) in control liposomes, effect of mercurial reagents
Format: biochemical
Settings: 1 mM mercurial
Procedure: Purified AQP1 was stored overnight at 0° C. or frozen for several days at -80° C. prior to reconstitution. Reconstitution into proteoliposomes was carried out in a final volume of 1 ml containing 60-90 μg of purified AQP 1 protein in chromatography buffer, 9 mg of bath-sonicated E. coli phospholipid, 1.25% (w/v) octyl glucoside, and 50 mM Tris-HCl (pH 7.5). The mixture was briefly blended on a vortex mixer and incubated for 20 minutes on ice. […] Protein and phospholipid were measured as described by Ambudkar & Maloney (J. Biol. Chem., 1986, 261:10079-10086).
Permeability measurements. Membrane permeability measurements (Pf) were measured by exposing AQP1 proteoliposomes or control liposomes to an osmotic gradient by rapid mixing with an equal volume of another solution containing buffer A plus sufficient sucrose to increase osmolality in the mixed solutions to a value 120% of that in the original solution. This was performed with a stopped-flow fluorometer (SF.17MV, Applied Photophysics, Leatherhead, U.K.) with a measured dead time of 0.7 ms. […] Extravesicular carboxyfluorescein fluorescence was completely quenched using anti-fluorescein antibody (Harris et al., 1990, Am. J. Physiol. 259:F366-F371). […]

With `[Cl][Hg][Cl]` [HgCl2] the “effect on the Pf of control liposomes” value was “Neither pCMBS nor HgCl2 had any effect”.
